Among the data in ChEMBL document CHEMBL1153800, “Carbonic anhydrase inhibitors; fluorinated phenyl sulfamates show strong inhibitory activity and selectivity for the inhibition of the tumor-associated isozymes IX and XII over the cytosolic ones I and II” (Bioorg Med Chem Lett, 2009) are Ki and Ratio values, retold here.

For assay [1], the target named is Carbonic anhydrase 1 (Homo sapiens) (UniProt P00915).
Description: Inhibition of human CA1 by stopped flow CO2 hydration assay
Assay [2] concerns the target Carbonic anhydrase 2 (Homo sapiens) (UniProt P00918).
Description: Inhibition of human CA2 by stopped flow CO2 hydration assay
Assay [3] deals with Carbonic anhydrase 9 (Homo sapiens) (UniProt Q16790).
Description: Inhibition of tumor associated human recombinant CA9 catalytic domain by stopped flow CO2 hydration assay
Another assay is filed under the species Homo sapiens. As to the kind of experiment: Selectivity ratio of Ki for human recombinant CA9 catalytic domain to Ki for human CA2.
The target in assay [4] is Carbonic anhydrase 12 (Homo sapiens) (UniProt O43570).
Carbonic anhydrase 12 (Homo sapiens), sequence (O43570 whole entry): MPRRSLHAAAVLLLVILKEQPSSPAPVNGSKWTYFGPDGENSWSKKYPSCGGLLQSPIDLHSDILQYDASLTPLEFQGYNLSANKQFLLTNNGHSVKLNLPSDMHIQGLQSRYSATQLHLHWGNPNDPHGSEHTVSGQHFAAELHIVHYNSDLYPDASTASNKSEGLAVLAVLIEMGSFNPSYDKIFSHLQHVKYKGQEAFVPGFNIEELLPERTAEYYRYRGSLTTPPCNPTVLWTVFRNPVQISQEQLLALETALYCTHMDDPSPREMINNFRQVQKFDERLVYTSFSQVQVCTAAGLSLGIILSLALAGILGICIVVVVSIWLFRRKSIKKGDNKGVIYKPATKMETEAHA
Description: Inhibition of tumor associated human recombinant CA12 catalytic domain by stopped flow CO2 hydration assay

Carbonic anhydrase 1 (Homo sapiens), sequence (P00915 2-261 limits assumed): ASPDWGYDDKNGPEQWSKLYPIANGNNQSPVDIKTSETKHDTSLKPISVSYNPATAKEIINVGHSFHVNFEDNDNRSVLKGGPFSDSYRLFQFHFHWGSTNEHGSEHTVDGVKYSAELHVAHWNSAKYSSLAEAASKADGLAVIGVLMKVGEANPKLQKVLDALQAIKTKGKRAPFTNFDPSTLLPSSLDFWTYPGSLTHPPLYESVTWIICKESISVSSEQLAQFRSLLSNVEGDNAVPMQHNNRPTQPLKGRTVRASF

For `NS(=O)(=O)Oc1ccc(F)cc1`, the Ki in assay [1] was 0.075 µM; in assay [2] it was 0.074 µM; in assay [3] it was 0.0065 µM; in assay [4], 3.9. In addition, in the assay listed under Homo sapiens, the Ratio turned out to be 11.4.
On to `NS(=O)(=O)Oc1ccccc1`, for which the Ki in assay [1] is 0.0021 µM; in assay [3] it was 0.063 µM; in assay [4] it was 56.
